# From patent US20230391727A1, “ANALOGUES OF PENTAMIDINE AND METHODS FOR TREATING INFECTIONS” (Auransa Inc., priority 2020, published 2023)
# Where two headings read alike, the source gives them in different places.
# Key:
# Assay in all cases: Anti-fungal MIC assay
# Type in all cases: cell-based
# Candida albicans CA6 = test system: Candida albicans CA6
# Protocol: (§1) The first round of testing included Candida parapsilosis, Candida krusei, Paecilomyces variotii, Candida albicans, Aspergillus fumigatus, and Blastomyces dermatitidis. […] The second round of testing included Candida parapsilosis, Candida krusei, Candida albicans, Candida auris, Candida glabrata, Candida guilliermondii, and Cryptococcus neoformans.
# (§2) Stock solutions of the investigational agent were prepared at concentrations 100-times the highest concentration to be tested (6400 μg/ml) using dimethyl sulfoxide. Aliquots of the stock solutions were dispensed into polystyrene vials and stored at −20° C.
# (§3) The synthetic medium RPMI-1640 (with glutamine, without bicarbonate, and with phenol red) was used. The RPMI was buffered to a pH of 7.0+0.1 at 25° C. with 0.165M MOPS (3-[N-morpholino] propanesulfonic acid). Sterile U-shaped 96-well cell culture plates were used to perform the MIC assays. Dilutions of the DMSO stocks were prepared in RPMI to achieve 2× concentrations. After the dilutions of the working 2× investigational antifungal solutions were prepared, 0.1 ml of each concentration was transferred into a pre-specified column of the U-shaped 96-well cell culture plate using sterile pipettes.
# (§4) Fungal isolates were grown on Sabouraud dextrose agar (yeasts) or potato flake agar (filamentous fungi) and cells were collected after an appropriate period of growth for each species being evaluated (e.g., 48-72 hours for yeasts and 7 days for filamentous fungi). The fungi were suspended in sterile distilled water, and the densities of the fungal suspension were read using a spectrophotometer and adjusted to an appropriate optical density specific for each fungal species. The fungal suspension of each isolate was then diluted in RPMI. A sufficient volume of the test inoculum was prepared to directly inoculate 0.1 ml into each test well of the 96-well cell culture plate. Final inoculum ranges were dependent on the fungal species to be tested (e.g., 0.4×103 to 5×10^3 cells/ml for yeasts and dimorphic fungi, and 0.4×104 to 5×10^4 cells/ml for filamentous fungi). Each well of the 96-well cell culture plate containing the investigational antifungal compounds (0.1 ml volume) was inoculated on the day of the assay with 0.1 ml of the fungal suspension. Growth control wells contained 0.1 ml of fungal suspension and 0.1 ml of the growth medium without antifungal agents. The media control well contained 0.2 ml of the growth medium.
# (§5) The microdilution trays were incubated at 35° C. without agitation. […] One positive comparator/control was used for yeast (fluconazole) and one was used for filamentous fungi (voriconazole).
# Candida albicans CA3 = test system: Candida albicans CA3
# Protocol: as §1, §2, §3, §4, §5
# Candida auris DI17-47 = settings: Candidozyma auris
# Protocol: as §1, §2, §3, §4, §5
# Candida krusei ATCC6258 = settings: Pichia kudriavzevii
# Protocol: as §1, §2, §3, §4, §5
# Candida glabrata 05-62 = test system: Candida glabrata 05-62
# Protocol: as §1, §2, §3, §4, §5
# [1] = test system: Candida guilliermondii Cgui3; settings: Meyerozyma guilliermondii
# Protocol: as §1, §2, §3, §4, §5
# [2] = test system: Cryptococcus neoformans H99
# Protocol: as §1, §2, §3, §4, §5
# [3] = test system: Cryptococcus neoformans CN3
# Protocol: as §1, §2, §3, §4, §5
# [4] = test system: Paecilomyces variotii MYA-3630
# Protocol: as §1, §2, §3, §4, §5
# Candida albicans CA5 = test system: Candida albicans CA5
# Protocol: as §1, §2, §3, §4, §5
# Candida glabrata CG3 = settings: Nakaseomyces glabratus
# Protocol: as §1, §2, §3, §4, §5
# [5] = test system: Blastomyces dermatitidis BD1
# Protocol: as §1, §2, §3, §4, §5
# [6] = test system: Candida guilliermondii Cgui1; settings: Meyerozyma guilliermondii
# Protocol: as §1, §2, §3, §4, §5
# [7] = test system: Aspergillus fumigatus AF3
# Protocol: as §1, §2, §3, §4, §5
# [8] = test system: Blastomyces dermatitidis BD3
# Protocol: as §1, §2, §3, §4, §5
# [9] = test system: Candida parapsilosis ATCC22019; settings: Lodderomyces parapsilosis
# Protocol: as §1, §2, §3, §4, §5
# Candida auris DI17-48 = settings: Candidozyma auris
# Protocol: as §1, §2, §3, §4, §5
# [10] = test system: Candida albicans ATCC90028
# Protocol: as §1, §2, §3, §4, §5
# Candida parapsilosis CP1 = test system: Candida parapsilosis CP1
# Protocol: as §1, §2, §3, §4, §5
# [11] = test system: Blastomyces dermatitidis BD2
# Protocol: as §1, §2, §3, §4, §5
# [12] = test system: Cryptococcus neoformans USC 1597
# Protocol: as §1, §2, §3, §4, §5
# Candida albicans 43001 = test system: Candida albicans 43001
# Protocol: as §1, §2, §3, §4, §5
# Candida albicans SC5314 = test system: Candida albicans SC5314
# Protocol: as §1, §2, §3, §4, §5
# [13] = read-out: MIC, 50% growth inhibition
# [14] = read-out: MIC, 100% growth inhibition
smiles,measurement,setting,value
"N=C(N)c1ccc(CC[C@H]2CCC[C@@H](CCc3ccc(C(=N)N)cc3)C2)cc1 [Compound 3, 4,4′-(2,2′-((1R,3S)-cyclohexane-1,3-diyl)bis(ethane-2,1-diyl))dibenzimidamide]",MIC,Candida albicans CA6; [13],0.5 µg/mL
same,MIC,Candida albicans CA6; [14],0.5 µg/mL
same,MIC,Candida albicans CA3; [13],1 µg/mL
same,MIC,Candida albicans CA3; [14],1 µg/mL
same,MIC,"Candida auris DI17-47; DI1747, read-out: MIC, 50% growth inhibition",1 µg/mL
same,MIC,"Candida auris DI17-47; DI1747, read-out: MIC, 100% growth inhibition",4 µg/mL
same,MIC,"Candida krusei ATCC6258; ATCC6258, C. krusei ATCC 6258, second round (Table 6), read-out: MIC, 50% growth inhibition",0.5 µg/mL
same,MIC,"Candida krusei ATCC6258; ATCC6258, Candida krusei ATCC6258, first round (Table 5), read-out: MIC, 50% growth inhibition",8 µg/mL
same,MIC,"Candida krusei ATCC6258; ATCC6258, read-out: MIC, 100% growth inhibition, C. krusei ATCC 6258, second round (Table 6)",1 µg/mL
same,MIC,"Candida krusei ATCC6258; ATCC6258, read-out: MIC, 100% growth inhibition, Candida krusei ATCC6258, first round (Table 5)",8 µg/mL
same,MIC,"Candida glabrata 05-62; Nakaseomyces glabratus, 0562, read-out: MIC, 50% growth inhibition",2 µg/mL
same,MIC,"Candida glabrata 05-62; Nakaseomyces glabratus, 0562, read-out: MIC, 100% growth inhibition",4 µg/mL
same,MIC,[1]; [13],2 µg/mL
same,MIC,[1]; [14],2 µg/mL
same,MIC,[2]; [13],0.5 µg/mL
same,MIC,[2]; [14],0.5 µg/mL
same,MIC,[3]; [13],0.5 µg/mL
same,MIC,[3]; [14],0.5 µg/mL
same,MIC,"[4]; MYA3630, read-out: MIC, 50% growth inhibition",1 µg/mL
same,MIC,"[4]; MYA3630, read-out: MIC, 100% growth inhibition",1 µg/mL
same,MIC,Candida albicans CA5; [13],0.25 µg/mL
same,MIC,Candida albicans CA5; [14],0.5 µg/mL
same,MIC,Candida glabrata CG3; [13],0.5 µg/mL
same,MIC,Candida glabrata CG3; [14],1 µg/mL
same,MIC,[5]; [13],4 µg/mL
same,MIC,[5]; [14],8 µg/mL
same,MIC,[6]; [13],1 µg/mL
same,MIC,[6]; [14],1 µg/mL
same,MIC,[7]; [13],32 µg/mL
same,MIC,[7]; [14],64 µg/mL
same,MIC,[8]; [13],4 µg/mL
same,MIC,[8]; [14],8 µg/mL
same,MIC,"[9]; ATCC22019, C. parapsilosis ATCC 22019, second round (Table 6), read-out: MIC, 50% growth inhibition",0.25 µg/mL
same,MIC,"[9]; ATCC22019, Candida parapsilosis ATCC22019, first round (Table 5), read-out: MIC, 50% growth inhibition",0.5 µg/mL
same,MIC,"[9]; ATCC22019, read-out: MIC, 100% growth inhibition, C. parapsilosis ATCC 22019, second round (Table 6)",0.5 µg/mL
same,MIC,"[9]; ATCC22019, read-out: MIC, 100% growth inhibition, Candida parapsilosis ATCC22019, first round (Table 5)",1 µg/mL
same,MIC,"Candida auris DI17-48; DI1748, read-out: MIC, 50% growth inhibition",2 µg/mL
same,MIC,"Candida auris DI17-48; DI1748, read-out: MIC, 100% growth inhibition",4 µg/mL
same,MIC,[10]; [13],0.5 µg/mL
same,MIC,[10]; [14],1 µg/mL
same,MIC,Candida parapsilosis CP1; [13],1 µg/mL
same,MIC,Candida parapsilosis CP1; [14],8 µg/mL
same,MIC,[11]; [13],2 µg/mL
same,MIC,[11]; [14],4 µg/mL
same,MIC,"[12]; USC1597, read-out: MIC, 50% growth inhibition",0.5 µg/mL
same,MIC,"[12]; USC1597, read-out: MIC, 100% growth inhibition",0.5 µg/mL
same,MIC,Candida albicans 43001; [13],0.25 µg/mL
same,MIC,Candida albicans 43001; [14],0.5 µg/mL
same,MIC,Candida albicans SC5314; [13],1 µg/mL
same,MIC,Candida albicans SC5314; [14],1 µg/mL
